{"source": "ChEMBL document CHEMBL5291721", "about": "“A preclinical secondary pharmacology resource illuminates target-adverse drug reaction associations of marketed drugs” (Nat Commun, 2023)", "key": {"[1]": {"target": "D(3) dopamine receptor (Homo sapiens, UniProt P35462)", "sequence (P35462 whole entry)": "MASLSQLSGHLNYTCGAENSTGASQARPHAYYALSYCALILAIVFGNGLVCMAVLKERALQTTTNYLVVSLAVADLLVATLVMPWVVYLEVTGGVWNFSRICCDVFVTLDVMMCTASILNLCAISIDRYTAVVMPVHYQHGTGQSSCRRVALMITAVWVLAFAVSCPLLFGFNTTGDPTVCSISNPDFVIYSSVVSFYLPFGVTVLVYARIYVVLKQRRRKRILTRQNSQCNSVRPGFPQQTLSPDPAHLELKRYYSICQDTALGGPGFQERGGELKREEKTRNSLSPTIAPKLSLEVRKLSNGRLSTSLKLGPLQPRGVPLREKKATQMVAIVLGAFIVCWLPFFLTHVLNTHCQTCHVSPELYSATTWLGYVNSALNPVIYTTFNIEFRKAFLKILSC"}, "[2]": {"target": "T1, Adenosine receptor A3 (Homo sapiens, UniProt P0DMS8)", "T1 sequence (P0DMS8 whole entry)": "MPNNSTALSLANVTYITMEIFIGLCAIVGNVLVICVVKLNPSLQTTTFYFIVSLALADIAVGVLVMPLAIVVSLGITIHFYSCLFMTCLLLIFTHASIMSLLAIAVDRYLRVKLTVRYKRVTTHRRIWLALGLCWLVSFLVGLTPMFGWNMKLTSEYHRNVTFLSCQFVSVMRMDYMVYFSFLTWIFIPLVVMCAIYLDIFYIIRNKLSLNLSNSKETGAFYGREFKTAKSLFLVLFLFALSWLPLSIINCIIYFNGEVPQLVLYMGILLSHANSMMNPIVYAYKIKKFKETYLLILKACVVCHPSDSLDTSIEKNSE"}, "[3]": {"target": "T2, Cholecystokinin receptor type A (Homo sapiens, UniProt P32238)", "T2 sequence (P32238 whole entry)": "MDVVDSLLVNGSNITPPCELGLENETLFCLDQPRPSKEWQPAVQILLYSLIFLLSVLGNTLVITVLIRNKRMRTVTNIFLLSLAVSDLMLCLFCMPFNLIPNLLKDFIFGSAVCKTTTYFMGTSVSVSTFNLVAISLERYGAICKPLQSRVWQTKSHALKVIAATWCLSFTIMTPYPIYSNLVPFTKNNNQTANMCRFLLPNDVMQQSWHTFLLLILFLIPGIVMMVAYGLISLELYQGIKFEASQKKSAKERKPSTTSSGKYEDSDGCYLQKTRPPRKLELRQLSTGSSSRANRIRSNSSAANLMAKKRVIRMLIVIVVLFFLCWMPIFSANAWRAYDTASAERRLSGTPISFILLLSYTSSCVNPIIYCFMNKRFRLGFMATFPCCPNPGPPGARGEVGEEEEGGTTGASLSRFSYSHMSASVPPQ"}, "[4]": {"target": "T3, Alpha-2A adrenergic receptor (Homo sapiens, UniProt P08913)", "T3 sequence (P08913 whole entry)": "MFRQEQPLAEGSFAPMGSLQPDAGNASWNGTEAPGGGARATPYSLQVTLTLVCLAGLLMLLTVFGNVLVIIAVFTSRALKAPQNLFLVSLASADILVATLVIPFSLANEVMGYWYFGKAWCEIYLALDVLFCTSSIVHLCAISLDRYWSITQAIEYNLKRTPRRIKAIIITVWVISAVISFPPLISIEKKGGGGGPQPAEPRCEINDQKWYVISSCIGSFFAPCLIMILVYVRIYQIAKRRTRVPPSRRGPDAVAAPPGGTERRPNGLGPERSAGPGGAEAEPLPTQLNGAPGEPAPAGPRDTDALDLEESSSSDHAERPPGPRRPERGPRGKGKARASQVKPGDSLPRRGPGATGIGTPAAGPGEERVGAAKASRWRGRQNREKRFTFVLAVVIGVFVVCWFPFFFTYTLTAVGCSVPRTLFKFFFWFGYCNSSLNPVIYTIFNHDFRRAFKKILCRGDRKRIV", "assay_type": "functional, cell-based"}, "[5]": {"target": "Vasopressin V2 receptor (Homo sapiens, UniProt P30518)", "sequence (P30518 whole entry)": "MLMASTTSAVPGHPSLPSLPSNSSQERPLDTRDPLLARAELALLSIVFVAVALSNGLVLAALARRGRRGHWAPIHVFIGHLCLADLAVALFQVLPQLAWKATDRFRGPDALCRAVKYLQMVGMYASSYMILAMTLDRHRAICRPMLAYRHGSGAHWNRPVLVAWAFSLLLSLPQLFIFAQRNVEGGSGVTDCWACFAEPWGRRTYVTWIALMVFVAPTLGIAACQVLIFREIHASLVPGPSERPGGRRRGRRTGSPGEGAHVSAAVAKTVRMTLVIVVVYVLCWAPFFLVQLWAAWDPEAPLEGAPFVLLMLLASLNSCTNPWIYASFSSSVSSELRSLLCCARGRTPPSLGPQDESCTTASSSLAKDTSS"}, "[6]": {"target": "Growth hormone secretagogue receptor type 1 (Homo sapiens, UniProt Q92847)", "sequence (Q92847 whole entry)": "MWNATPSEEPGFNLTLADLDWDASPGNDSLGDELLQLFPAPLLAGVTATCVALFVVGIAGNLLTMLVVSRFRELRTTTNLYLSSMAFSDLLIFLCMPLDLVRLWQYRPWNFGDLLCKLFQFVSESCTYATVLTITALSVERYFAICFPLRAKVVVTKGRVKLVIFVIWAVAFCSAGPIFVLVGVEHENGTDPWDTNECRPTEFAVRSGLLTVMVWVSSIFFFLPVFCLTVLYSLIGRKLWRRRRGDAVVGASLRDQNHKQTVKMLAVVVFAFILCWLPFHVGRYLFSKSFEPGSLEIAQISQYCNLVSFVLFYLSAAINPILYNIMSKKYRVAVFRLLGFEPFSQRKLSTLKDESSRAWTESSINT"}, "[7]": {"target": "Sodium-dependent dopamine transporter (Homo sapiens, UniProt Q01959)", "sequence (Q01959 whole entry)": "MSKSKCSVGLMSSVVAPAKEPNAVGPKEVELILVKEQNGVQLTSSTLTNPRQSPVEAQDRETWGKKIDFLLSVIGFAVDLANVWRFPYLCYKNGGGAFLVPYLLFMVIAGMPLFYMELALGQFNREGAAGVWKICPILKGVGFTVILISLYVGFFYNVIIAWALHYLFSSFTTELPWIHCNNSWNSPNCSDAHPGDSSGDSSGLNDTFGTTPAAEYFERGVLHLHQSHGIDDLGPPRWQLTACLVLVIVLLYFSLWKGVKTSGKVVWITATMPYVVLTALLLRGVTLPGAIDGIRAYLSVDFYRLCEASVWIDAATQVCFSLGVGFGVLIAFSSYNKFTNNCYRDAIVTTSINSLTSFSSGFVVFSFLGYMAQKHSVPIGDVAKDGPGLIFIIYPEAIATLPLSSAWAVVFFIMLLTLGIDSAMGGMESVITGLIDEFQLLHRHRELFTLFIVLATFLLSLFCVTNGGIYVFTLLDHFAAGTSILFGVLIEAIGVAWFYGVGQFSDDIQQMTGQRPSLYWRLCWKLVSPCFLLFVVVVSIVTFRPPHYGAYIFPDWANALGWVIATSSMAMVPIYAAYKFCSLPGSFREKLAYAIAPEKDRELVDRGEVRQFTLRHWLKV"}, "[8]": {"target": "Histamine H2 receptor (Homo sapiens, UniProt P25021)", "sequence (P25021 whole entry)": "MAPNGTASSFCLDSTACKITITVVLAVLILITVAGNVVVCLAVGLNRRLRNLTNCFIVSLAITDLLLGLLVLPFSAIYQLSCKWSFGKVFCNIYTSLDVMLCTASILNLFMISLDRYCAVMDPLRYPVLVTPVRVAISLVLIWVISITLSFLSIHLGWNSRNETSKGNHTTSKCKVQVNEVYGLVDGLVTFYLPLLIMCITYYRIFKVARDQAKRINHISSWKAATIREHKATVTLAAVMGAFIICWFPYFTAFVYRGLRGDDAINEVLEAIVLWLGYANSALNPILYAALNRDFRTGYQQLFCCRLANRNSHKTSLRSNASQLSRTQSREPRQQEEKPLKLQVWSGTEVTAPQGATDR", "assay_type": "functional, cell-based"}, "[9]": {"target": "T4, Thromboxane A2 receptor (Homo sapiens, UniProt P21731)", "T4 sequence (P21731 whole entry)": "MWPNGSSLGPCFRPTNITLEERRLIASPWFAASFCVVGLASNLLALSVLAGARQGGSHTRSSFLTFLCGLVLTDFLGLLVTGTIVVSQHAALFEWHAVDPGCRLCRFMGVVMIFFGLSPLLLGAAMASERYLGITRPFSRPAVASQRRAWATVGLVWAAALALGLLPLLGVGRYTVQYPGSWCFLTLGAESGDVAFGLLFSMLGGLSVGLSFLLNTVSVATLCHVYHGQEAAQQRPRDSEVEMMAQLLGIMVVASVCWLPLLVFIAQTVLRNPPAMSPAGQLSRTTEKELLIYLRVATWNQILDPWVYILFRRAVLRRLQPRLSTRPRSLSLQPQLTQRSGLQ"}, "[10]": {"target": "T5, Equilibrative nucleoside transporter 1 (Homo sapiens, UniProt Q99808)", "T5 sequence (Q99808 whole entry)": "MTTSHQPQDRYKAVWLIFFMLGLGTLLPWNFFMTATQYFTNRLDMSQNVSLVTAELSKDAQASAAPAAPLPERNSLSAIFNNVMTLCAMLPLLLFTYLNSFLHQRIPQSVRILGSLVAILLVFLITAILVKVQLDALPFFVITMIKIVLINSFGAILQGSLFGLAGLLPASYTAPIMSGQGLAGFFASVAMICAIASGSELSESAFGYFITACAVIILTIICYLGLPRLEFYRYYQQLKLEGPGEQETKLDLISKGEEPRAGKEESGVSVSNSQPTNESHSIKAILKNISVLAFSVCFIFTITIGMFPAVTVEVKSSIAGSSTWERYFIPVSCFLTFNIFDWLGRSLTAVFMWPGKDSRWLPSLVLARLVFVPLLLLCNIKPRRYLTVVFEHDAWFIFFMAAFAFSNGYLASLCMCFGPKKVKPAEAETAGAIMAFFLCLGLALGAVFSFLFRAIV"}, "[11]": {"target": "Sodium-dependent noradrenaline transporter (Homo sapiens, UniProt P23975)", "sequence (P23975 whole entry)": "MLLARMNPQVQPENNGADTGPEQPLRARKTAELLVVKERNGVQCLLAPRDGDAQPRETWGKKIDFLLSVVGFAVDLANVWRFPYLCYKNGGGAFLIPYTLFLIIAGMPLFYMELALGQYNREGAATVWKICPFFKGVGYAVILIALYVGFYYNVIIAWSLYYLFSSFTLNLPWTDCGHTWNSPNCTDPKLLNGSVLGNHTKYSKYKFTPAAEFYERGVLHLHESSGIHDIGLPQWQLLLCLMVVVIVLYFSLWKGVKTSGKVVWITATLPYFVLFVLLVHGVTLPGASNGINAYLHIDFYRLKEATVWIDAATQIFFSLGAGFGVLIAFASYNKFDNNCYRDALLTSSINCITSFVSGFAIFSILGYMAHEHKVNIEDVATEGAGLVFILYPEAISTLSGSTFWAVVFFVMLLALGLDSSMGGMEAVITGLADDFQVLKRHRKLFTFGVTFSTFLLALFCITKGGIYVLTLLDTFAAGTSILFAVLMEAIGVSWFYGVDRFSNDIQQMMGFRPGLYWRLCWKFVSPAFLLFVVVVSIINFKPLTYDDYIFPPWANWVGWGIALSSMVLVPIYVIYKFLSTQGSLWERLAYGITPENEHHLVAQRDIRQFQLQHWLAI"}, "[12]": {"target": "T6, Adenosine receptor A1 (Homo sapiens, UniProt P30542)", "T6 sequence (P30542 whole entry)": "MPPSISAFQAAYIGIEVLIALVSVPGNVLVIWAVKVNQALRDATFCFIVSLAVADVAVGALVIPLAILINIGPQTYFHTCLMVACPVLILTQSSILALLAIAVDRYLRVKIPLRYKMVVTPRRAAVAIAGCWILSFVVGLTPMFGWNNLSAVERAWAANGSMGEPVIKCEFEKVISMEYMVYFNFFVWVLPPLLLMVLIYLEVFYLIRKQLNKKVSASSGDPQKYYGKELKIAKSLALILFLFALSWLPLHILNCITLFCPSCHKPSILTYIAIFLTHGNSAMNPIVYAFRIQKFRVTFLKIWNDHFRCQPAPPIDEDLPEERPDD"}}, "note": "Values joined by “and” are separate entries in the source; they are usually repeats but may differ in a detail not shown here. Equal values may be shown once. Further: assay procedure not described here."}
{"compound": "CCC(=O)O[C@]1(C(=O)SCF)[C@H](C)C[C@H]2[C@@H]3C[C@H](F)C4=CC(=O)C=C[C@]4(C)[C@@]3(F)[C@@H](O)C[C@@]21C", "note": "[FLUTICASONE PROPIONATE]", "values": [{"measurement": "AC50", "setting": "[1]", "value": "> 30", "unit": "µM"}, {"measurement": "AC50", "setting": "[2]", "value": "> 30", "unit": "µM"}, {"measurement": "AC50", "setting": "[3]", "value": "> 30", "unit": "µM"}, {"measurement": "AC50", "setting": "[4]", "value": "> 30", "unit": "µM"}, {"measurement": "AC50", "setting": "[5]", "value": "> 30", "unit": "µM"}, {"measurement": "AC50", "setting": "[6]", "value": "> 30", "unit": "µM"}, {"measurement": "AC50", "setting": "[7]", "value": "> 30", "unit": "µM"}, {"measurement": "AC50", "setting": "[8]", "value": "> 10", "unit": "µM"}, {"measurement": "AC50", "setting": "[9]", "value": "> 30", "unit": "µM"}, {"measurement": "AC50", "setting": "[10]", "value": "> 30", "unit": "µM"}, {"measurement": "AC50", "setting": "[11]", "value": "> 30", "unit": "µM"}, {"measurement": "AC50", "setting": "[12]", "value": "> 30", "unit": "µM"}]}
{"compound": "CC(C(=O)O)c1ccc(CC2CCCC2=O)cc1", "note": "(stereo not drawn) [LOXOPROFEN]", "values": [{"measurement": "AC50", "setting": "[1]", "value": "> 30", "unit": "µM"}, {"measurement": "AC50", "setting": "[2]", "value": "> 30", "unit": "µM"}, {"measurement": "AC50", "setting": "[3]", "value": "> 30", "unit": "µM"}, {"measurement": "AC50", "setting": "[4]", "value": "> 30", "unit": "µM"}, {"measurement": "AC50", "setting": "[5]", "value": "> 30", "unit": "µM"}, {"measurement": "AC50", "setting": "[6]", "value": "> 30", "unit": "µM"}, {"measurement": "AC50", "setting": "[7]", "value": "> 30", "unit": "µM"}, {"measurement": "AC50", "setting": "[8]", "value": "> 30", "unit": "µM"}, {"measurement": "AC50", "setting": "[9]", "value": "> 30", "unit": "µM"}, {"measurement": "AC50", "setting": "[10]", "value": "> 30", "unit": "µM"}, {"measurement": "AC50", "setting": "[11]", "value": "> 30", "unit": "µM"}, {"measurement": "AC50", "setting": "[12]", "value": "> 30", "unit": "µM"}]}
{"compound": "CC1(C)S[C@@H]2[C@H](NC(=O)[C@H](N)c3ccccc3)C(=O)N2[C@H]1C(=O)OCOC(=O)[C@@H]1N2C(=O)C[C@H]2S(=O)(=O)C1(C)C", "note": "[SULTAMICILLIN]", "values": [{"measurement": "AC50", "setting": "[1]", "value": "> 30", "unit": "µM"}, {"measurement": "AC50", "setting": "[2]", "value": "> 30", "unit": "µM"}, {"measurement": "AC50", "setting": "[3]", "value": "> 30", "unit": "µM"}, {"measurement": "AC50", "setting": "[4]", "value": "> 30", "unit": "µM"}, {"measurement": "AC50", "setting": "[5]", "value": "> 30", "unit": "µM"}, {"measurement": "AC50", "setting": "[6]", "value": "> 30", "unit": "µM"}, {"measurement": "AC50", "setting": "[7]", "value": "> 30", "unit": "µM"}, {"measurement": "AC50", "setting": "[8]", "value": "> 30", "unit": "µM"}, {"measurement": "AC50", "setting": "[9]", "value": "> 30", "unit": "µM"}, {"measurement": "AC50", "setting": "[10]", "value": "> 30", "unit": "µM"}, {"measurement": "AC50", "setting": "[11]", "value": "> 30", "unit": "µM"}, {"measurement": "AC50", "setting": "[12]", "value": "> 30", "unit": "µM"}]}
{"compound": "C[C@H](Cc1ccc(O)c(O)c1)[C@@H](C)Cc1ccc(O)c(O)c1", "note": "[MASOPROCOL]", "values": [{"measurement": "AC50", "setting": "[1]", "value": 1.8, "unit": "µM"}, {"measurement": "AC50", "setting": "[2]", "value": "5.4 µM and 4.7 µM and 4.1 µM"}, {"measurement": "AC50", "setting": "[3]", "value": "> 10", "unit": "µM"}, {"measurement": "AC50", "setting": "[4]", "value": "> 10", "unit": "µM"}, {"measurement": "AC50", "setting": "[5]", "value": "> 10", "unit": "µM"}, {"measurement": "AC50", "setting": "[6]", "value": "> 10", "unit": "µM"}, {"measurement": "AC50", "setting": "[7]", "value": "3.4 µM and 5.4 µM and 5.2 µM"}, {"measurement": "AC50", "setting": "[8]", "value": "> 10", "unit": "µM"}, {"measurement": "AC50", "setting": "[9]", "value": "> 10 µM and 29 µM (2×)"}, {"measurement": "AC50", "setting": "[10]", "value": "> 30", "unit": "µM"}, {"measurement": "AC50", "setting": "[11]", "value": "20.6 µM and 20 µM (2×)"}, {"measurement": "AC50", "setting": "[12]", "value": "> 30", "unit": "µM"}]}
